Laboratory results as given in patent publication US20070117743A1, “New antitumoral compounds” (priority 2003, published 2007).
Where a SMILES comes first, the peptide text is derived from it. Bridges are numbered along the chain shown (N, C = ends). [ ]: non-standard residue; d: D form. The star is where a group is joined. d(aIle) = CC[C@H](C)[C@@H](N)C(=O)O; d(aThr) = C[C@@H](O)[C@@H](N)C(=O)O; Hexanoyl(5-Me) = CC(C)CCCC(=O)*; d(hCys) = N[C@H](CCS)C(=O)O; Orn = NCCC[C@H](N)C(=O)O; Dhb = C/C=C(\N)C(=O)O

What was measured:
Format in all cases: cell-based, human
A-549 = test: SRB colorimetric assay of cell growth and viability, A-549; conditions: A-549 cells, 48 hours exposure, SRB; for GI50: read-out: GI50 (growth inhibition at 50%); for CC50: read-out: LC50 (lethal concentration at 50%)
HT-29 = test: SRB colorimetric assay of cell growth and viability, HT-29; conditions: HT-29 cells, 48 hours exposure, SRB; for GI50: read-out: GI50 (growth inhibition at 50%); for CC50: read-out: LC50 (lethal concentration at 50%)
MB-231 = test: SRB colorimetric assay of cell growth and viability, MB-231; conditions: for TGI (total growth inhibition): MB-231 cells, 48 hours exposure; for GI50: read-out: GI50 (growth inhibition at 50%), MB-231 cells, 48 hours exposure; for CC50: read-out: LC50 (lethal concentration at 50%), MB-231 cells, 48 hours exposure
Source text: The finality of this assay is to interrupt the growth of a “in vitro” tumor cell culture by means a continued exhibition of the cells to the sample to be testing.
A colorimetric type of assay, using sulforhodamine B (SRB) reaction has been adapted for a quantitative measurement of cell growth and viability [following the technique described by Philip Skehan, et al. (1990), New colorimetric cytotoxicity assay for anticancer drug screening, J. Natl. Cancer Inst., 82:1107-1112].
This form of the assay employs 96 well cell culture microplates of 9 mm diameter (Faircloth, 1988; Mosmann, 1983). Most of the cell lines are obtained from American Type Culture Collection (ATCC) derived from different human cancer types.
Cells are maintained in RPMI 1640 10% FBS, supplemented with 0.1 g/l penicillin and 0.1 g/l streptomycin sulfate and then incubated at 37° C., 5% CO2 and 98% humidity. For the experiments, cells were harvested from subconfluent cultures using trypsin and resuspended in fresh medium before plating.
Cells are seeded in 96 well microtiter plates, at 5×10^3 cells per well in aliquots of 195 μL medium, and they are allowed to attach to the plate surface by growing in drug free medium for 18 hours. Afterward, samples are added in aliquots of 5 μL in a ranging from 10 to 10^−8 μg/mL, dissolved in DMSO:EtOH:PBS (0.5:0.5:99). After 48 hours exposure, the antitumor effect are measured by the SRB methodology: cells are fixed by adding 50 μL of cold 50% (wt/vol) trichloroacetic acid (TCA) and incubating for 60 minutes at 4° C. Plates are washed with deionized water and dried. One hundred μL of SRB solution (0.4% wt/vol in 1% acetic acid) is added to each microtiter well and incubated for 10 minutes at room temperature. Unbound SRB is removed by washing with 1% acetic acid. Plates are air dried and bound stain is solubilized with Tris buffer. Optical densities are read on a automated spectrophotometric plate reader at a single wavelength of 490 nm.
The values for mean+/− SD of data from triplicate wells are calculated. Some parameters for cellular responses can be calculated: GI=growth inhibition, TGI=total growth inhibition (cytostatic effect) and LC=cell killing (cytotoxic effect).

Row | Compound | TGI (total growth inhibition) (A-549) | GI50 (A-549) | CC50 (A-549) | TGI (total growth inhibition) (HT-29) | GI50 (HT-29) | CC50 (HT-29) | TGI (total growth inhibition) (MB-231) | GI50 (MB-231) | CC50 (MB-231)
1 | C/C=C1\NC(=O)[C@H](Cc2ccccc2)NC(=O)[C@@H](C(C)C)NC(=O)[C@@H]([C@@H](C)CC)NC(=O)[C@H](NC(=O)[C@H](NC(=O)[C@H](CCCN)NC(=O)[C@H]2CCCN2C(=O)[C@H](NC(=O)[C@@H](NC(=O)[C@@H](NC(=O)[C@H](NC(=O)[C@]23CCC(C)(C)C[C@H]2C2=CC[C@@H]4[C@@]5(C)C[C@@H](O)[C@H](O)C(C)(C)[C@@H]5CC[C@@]4(C)[C@]2(C)CC3)C(C)C)[C@@H](C)O)C(C)C)C(C)C)[C@@H](C)CC)[C@@H](C)OC(=O)[C@H](C(C)C)NC1=O [Compound 101, [AM^14]-KF] | 5.49E−06 Molar | 5.49 µM | 5.49 µM | 4.60E−06 Molar | 4.45 µM | 4.86 µM | 5.49E−06 Molar |  | 
2 | C/C=C1\NC(=O)[C@H](Cc2ccccc2)NC(=O)[C@@H](C(C)C)NC(=O)[C@@H]([C@@H](C)CC)NC(=O)[C@H](NC(=O)[C@H](NC(=O)[C@H](CCCN)NC(=O)[C@H]2CCCN2C(=O)[C@H](NC(=O)[C@@H](NC(=O)[C@@H](NC(=O)[C@H](NC(=O)CCCC(C)C)C(C)C)[C@@H](C)O)C(C)C)C(C)C)[C@H](C)CC)[C@@H](C)OC(=O)[C@H](C(C)C)NC1=O [Compound 104, [D-Ile^7]-KF] | 1.13E−06 Molar | 0.942 µM | 1.51 µM | 3.39E−07 Molar | 0.314 µM | 0.371 µM | 5.34E−06 Molar | 5.09 µM | 5.59 µM
3 | C/C=C1\NC(=O)[C@H](Cc2ccccc2)NC(=O)[C@@H](C(C)C)NC(=O)[C@@H]([C@@H](C)CC)NC(=O)[C@H](NC(=O)[C@H](NC(=O)[C@H](CCCN)NC(=O)[C@H]2CCCN2C(=O)[C@H](NC(=O)[C@@H](NC(=O)[C@@H](NC(=O)[C@H](NC(=O)[C@]23CCC(C)(C)C[C@H]2C2=CC[C@@H]4[C@@]5(C)CC[C@H](O)C(C)(C)[C@@H]5CC[C@@]4(C)[C@]2(C)CC3)C(C)C)[C@@H](C)O)C(C)C)C(C)C)[C@@H](C)CC)[C@@H](C)OC(=O)[C@H](C(C)C)NC1=O [Compound 102, [AO^14]-KF] | 5.54E−06 Molar | 4.53 µM | 5.54 µM | 5.54E−06 Molar | 5.54 µM | 5.54 µM | 5.54E−06 Molar |  | 
4 | C/C=C1\NC(=O)[C@H](Cc2ccccc2)NC(=O)[C@@H](C(C)C)NC(=O)[C@@H]([C@@H](C)CC)NC(=O)[C@H](NC(=O)[C@H](NC(=O)[C@H](CCCN)NC(=O)[C@H]2CCCN2C(=O)[C@H](NC(=O)[C@@H](NC(=O)[C@@H](NC(=O)[C@H](NC(=O)CCCC(C)C)C(C)C)[C@@H](C)O)C(C)C)C(C)C)C(C)C)[C@@H](C)OC(=O)[C@H](C(C)C)NC1=O [Compound 105, [D-Val^7]-KF] ({Hexanoyl(5-Me)}-[dV]TV[dV][dP][Orn][dV][d(aThr)][d(aIle)][dV]F[Dhb]V; ester 8-C) | 2.60E−06 Molar | 2.28 µM | 3.04 µM | 8.87E−07 Molar | 0.824 µM | 0.887 µM | 6.33E−06 Molar |  | 
5 | C/C=C1\NC(=O)[C@H](Cc2ccccc2)NC(=O)[C@@H](C(C)C)NC(=O)[C@@H]([C@@H](C)CC)NC(=O)[C@H](NC(=O)[C@H](NC(=O)[C@@H](CCCN)NC(=O)[C@@H]2CCCN2C(=O)[C@H](NC(=O)[C@@H](NC(=O)[C@@H](NC(=O)[C@H](NC(=O)CCCC(C)C)C(C)C)[C@@H](C)O)C(C)C)C(C)C)[C@@H](C)CC)[C@@H](C)OC(=O)[C@H](C(C)C)NC1=O [Compound 106, [D-Orn^8, L-Pro^9]-KF] | 6.77E−06 Molar | 6.77 µM | 6.77 µM | 6.77E−06 Molar | 6.77 µM | 6.77 µM | 6.77E−06 Molar | ≥ 6.77 µM | ≥ 6.77 µM
6 | C/C=C1\NC(=O)[C@H](Cc2ccccc2)NC(=O)[C@@H](C(C)C)NC(=O)[C@@H]([C@@H](C)CC)NC(=O)[C@H](NC(=O)[C@@H](CCS)NC(=O)[C@H](CCCN)NC(=O)[C@H]2CCCN2C(=O)[C@@H](CCS)NC(=O)[C@@H](NC(=O)[C@@H](NC(=O)[C@H](NC(=O)CCCC(C)C)C(C)C)[C@@H](C)O)C(C)C)[C@@H](C)OC(=O)[C@H](C(C)C)NC1=O [Compound 109, [D-homoCys^7, D-homoCys^10]-KF] ({Hexanoyl(5-Me)}-[dV]TV[d(hCys)][dP][Orn][d(hCys)][d(aThr)][d(aIle)][dV]F[Dhb]V; ester 8-C) | 6.26E−06 Molar | 6.26 µM | 6.26 µM | 6.26E−06 Molar | 6.26 µM | 6.26 µM | 6.26E−06 Molar |  | 
7 | C/C=C1\NC(=O)[C@H](Cc2ccccc2)NC(=O)[C@@H](C(C)C)NC(=O)[C@@H]([C@@H](C)CC)NC(=O)[C@H](NC(=O)[C@@H](CS)NC(=O)[C@H](CCCN)NC(=O)[C@H]2CCCN2C(=O)[C@H](NC(=O)[C@H](CS)NC(=O)[C@@H](NC(=O)[C@H](NC(=O)CCCC(C)C)C(C)C)[C@@H](C)O)C(C)C)[C@@H](C)OC(=O)[C@H](C(C)C)NC1=O [Compound 107, [D-Cys^7, L-Cys^11]-KF] ({Hexanoyl(5-Me)}-[dV]TC[dV][dP][Orn][dC][d(aThr)][d(aIle)][dV]F[Dhb]V; ester 8-C) | 6.80E−06 Molar | 6.8 µM | 6.8 µM | 6.80E−06 Molar | 6.8 µM | 6.8 µM | 6.80E−06 Molar |  | 
8 | C/C=C1\NC(=O)[C@H](Cc2ccccc2)NC(=O)[C@@H](C(C)C)NC(=O)[C@@H]([C@@H](C)CC)NC(=O)[C@H](NC(=O)[C@H](NC(=O)[C@H](CCCN)NC(=O)[C@H]2CCCN2C(=O)[C@H](NC(=O)[C@@H](NC(=O)[C@@H](NC(=O)[C@H](NC(=O)CCCC(C)C)C(C)C)[C@@H](C)O)C(C)C)C(C)C)[C@@H](C)CC)[C@@H](C)OC(=O)[C@@H](C(C)C)NC1=O [Compound 110, [D-Val^1]-KF] | 1.13E−06 Molar | 0.879 µM | 1.63 µM | 5.15E−07 Molar | 0.408 µM | 0.691 µM | 3.71E−06 Molar | 3.2 µM | 6.28 µM
